# Entries after “also recorded” stand apart in the source; their conditions may differ. Like-named read-outs stand apart in the source and are kept apart here.
# B1: β-core: purified hCG beta core, degradation product of the beta chain of hCG; full length native glycosylated AA 6-40 & 55-92 (protein)
# chain 1: RPRCRPINATLAVEKEGCPVCITVNTTICAGYCPTMT
# chain 2: VVCNYRDVRFESIRLPGCPRGVNPVVSYAVALSCQCAL
# How the values were obtained:
# Ewing's sarcoma = experiment: Confocal microscopy apoptosis; format: cell-based, human; conditions: 200 ng/ml; 24 hrs
# Protocol: (§1) More extensive studies of the effects of MA and with truncated synthetic forms of MA (MAS) on a wide range of other human tumor cells were carried out using three-dimensional confocal microscopy. Cells were cultured and then seeded onto gelatinized glass chamber slides and incubated 24 hrs with the various test materials. The slides were then fixed with formalin and treated serially with Triton X-100 (0.01%) for 10 min at 25°, 0.4 ug/ml fluorescein isothiocyanate (FITC)-labeled Phalloidin (Sigma Chem. Co.) at room temperature for 30 min to bind actin, washed with PBS and the DNA stained with Propidium iodide (PI) (0.5 ug·ml) (Sigma Chemical Co.), for 15 min. The stained slides were washed and mounted on slow fade (Molecular Probes, Inc., Eugene, Oreg.) and examined through a dual emission filter XF53 (Omega, Inc., Brattlesboro, Va.) by fluorescent microscopy. In some experiments only DNA staining was performed. In these instances Triton X-100 was not used. The slides were stained with PI and examined for cell morphology and chromatin degradation under 3D confocal microscopy.
# KS Y-1 cells = experiment: Confocal microscopy apoptosis; format: cell-based, human; conditions: 200 ng/ml; 24 hrs
# Protocol: as §1
# [1] = test system: carcinoma of the breast HTB124; experiment: Confocal microscopy apoptosis; format: cell-based, human; conditions: 200 ng/ml; 24 hrs
# Protocol: as §1
# carcinoma of the colon = experiment: Confocal microscopy apoptosis; format: cell-based, human; conditions: 200 ng/ml; 24 hrs
# Protocol: as §1
# [2] = test system: carcinoma of the kidney HTB46; experiment: Confocal microscopy apoptosis; format: cell-based, human; conditions: 200 ng/ml; 24 hrs
# Protocol: as §1
# [3] = test system: carcinoma of the lung HTB184; experiment: Confocal microscopy apoptosis; format: cell-based, human; conditions: 200 ng/ml; 24 hrs
# Protocol: as §1
# [4] = test system: carcinoma of the pancreas CRL 1682; experiment: Confocal microscopy apoptosis; format: cell-based, human; conditions: 200 ng/ml; 24 hrs
# Protocol: as §1
# fibrosarcoma 4TB166 = experiment: Confocal microscopy apoptosis; format: cell-based, human; conditions: 200 ng/ml; 24 hrs
# Protocol: as §1
# gliobastoma HTB16 = experiment: Confocal microscopy apoptosis; format: cell-based, human; conditions: 200 ng/ml; 24 hrs
# Protocol: as §1
# [5] = test system: leukemia and lymphoma cell lines: HUT78, DAVDI, HG, SULTAN, T-cell lymphoma; experiment: Confocal microscopy apoptosis; format: cell-based, human; conditions: 200 ng/ml; 24 hrs
# Protocol: as §1
# melanoma HTB67 = experiment: Confocal microscopy apoptosis; format: cell-based, human; conditions: 200 ng/ml; 24 hrs
# Protocol: as §1
# [6] = test system: prostate carcinoma cell line PC3; experiment: Confocal microscopy apoptosis; format: cell-based, human; conditions: 200 ng/ml; 24 hrs
# Protocol: as §1
# [7] = test system: prostate carcinoma cell line PC4; experiment: Confocal microscopy apoptosis; format: cell-based, human; conditions: 200 ng/ml; 24 hrs
# Protocol: as §1
# [8] = test system: human carcinoma and sarcoma cells (PC3, KS Y-1); experiment: Xenotransplanted human tumors in immunodeficient mice; format: in vivo; conditions: controls at equivalent and higher molar concentrations
# Protocol: In the first set of experiments, MA was tested against tumors formed by xenotransplantation of various human carcinoma and sarcoma cells in immunodeficient mice. […] […] Three different synthetic forms of MA were used: full length (MAS3) and the previously described MAS1 and MAS2 (Panel C).
# HIV-1 = conditions: controls at similar, equimolar or higher concentrations
# Protocol: Virus (MOI of 0.001) was added to 10^6 cells in RPMI-1640 with 10% FCS. One hour later the various polypeptides were added once. The cells cultured for 3 days with 5 ug PHA and 20 i.m. of II-2/ml at 37°, after which virus was estimated by determining p24 (HIV-1) or p27 (SIV) (Organon-Teknika).
# The effect of native and synthetic MA on HIV-1 infection in vitro was evaluated using PHA and II-2 stimulated primary peripheral blood cells (PBMC), CD4+ T-cells enriched fractions from PBMC, and CD14+ macrophage enriched fractions. Infection was with HIV-1 IIIB (PBMC and CD4+ T-cells), HIV-1 Ba-L (macrophages), and two primary HIV-1 isolates not passaged in any cell line (PBMC).
# [9] = Summary of active and inactive peptides / overall biological activities
# human tumor cells = format: cell-based; conditions: controls at equimolar or 5 to 10× greater concentrations
# Protocol: The anti-tumor activities of MA were assessed in several in vitro and in vivo systems using published methods.^166 In vitro studies were with a wide variety of human tumor cell lines as well as short-term cultures of cells from biopsy samples obtained from tumors. The assays included effects of MA on colony formation, cell number and viability (trypan blue), and apoptosis. Four measures of microscopy were used. In vivo studies included the effects of MA on tumors induced in immunodeficient mice by xenotransplanted various human neoplastic cells, spontaneous neoplasms of immuno-competent mice and rats, and a few standard tumors in immuno-competent mice. Representative examples are presented.
# Cells (5×10^5/ml) were seeded in modified Eagle's medium supplemented with 10% FCS, 10% conditioned medium form PHA stimulated human lymphocytes, 2 mM glutamine in 0.8% V/V methylcellulose with or without various treatments in a final volume of 1.0 ml. Then 0.1 ml aliquots were seeded in 96 well flat bottom microtest plates and incubated at 37° C. in 5% CO2 in air for 7 days. Aggregates containing 50 cells or more were scored as colonies.
# 5×10^5 cells were seeded in triplicate on 24 gelatin coated wells in conditions as described for Panel A and treated with the indicated test materials. After 3 days the cells were dislodged from their monolayers by gentle pipetting with cell dissociation buffer (Life Technologies), counted after trypan blue staining and aliquots examined for Annexin V staining by indirect IFA […].
# Studies of the anti-tumor cell effects of MA were extended to other carcinomas, melanoma, some hematopoietic tumors, and carcinomas of the colon, prostate, breast, lung, brain, pancreas, and kidney-using cell lines from these tumors. […] Many more types of tumor cells were studied utilizing other assays (see below).
# HIV-1 gene expression = experiment: HIV-1 transgenic mice, pups feeding from treated mothers; format: in vivo; conditions: mouse, in vivo
# Source text: The transgenic mice contain 5.1 kb of the HIV-1 proviral genome, lacking gag and pol genes and 2.3 kb of vector.^172 The newly developed transgenic rat contains the same HIV-1 sequences and vector.
# Twenty-four hours after birth the mothers were either inoculated subcutaneously daily for 10 days or received an implanted osmotic pump delivering 30-150 pmoles of either native or synthetic MA or pMA. Various control polypeptides were used at equimolar or vast molar excess. The newborn pups were then allowed to feed from the foster mother breast milk over the entire period. Since the animals are at risk from needle inoculation, breastfeeding was the chosen route for MA administration.
# In these experiments total RNA was extracted from samples of skin RNA206 10 days after birth of MA treated and untreated mice. One ug of RNA was reverse transcribed into cDNA using random hexamer primer and […] reverse transcriptase (Life Technologies, Inc.) in a final vol. Of 30 ul. Three ul of each reaction was used for PCR amplification of the HIV-1 gene sequences (env, tat, nef, and rev) as described […], and glyceraldehyde 3-phosphate dehydrogenase (GAPDH) was amplified from each sample for normalization. After 25 cycles, 10% of the products were resolved by electrophoresis on 2% agarose gels, transferred to nitrocellulose membranes by Southern blotting, and hybridized to fluorescein isthiocyanate-labeled oligonucleotide probes complementary to internal sequences of the amplicons […]. Bound probes were detected by chemiluminescence (Amersham) and relative mRNA levels determined by densitrometry after normalization with GAPDH mRNA levels.
# [10] = test system: hematopoietic progenitors (CFU-GEMM, BFU-e, CFU-GM, T-CFC); experiment: Hematopoietic colony formation assays; format: cell-based, human
# Source text: Hematopoietic colony formation assays with bone marrow or cord blood of normal human volunteers and bone marrow of monkeys, rats, and mice were utilized. The assays are conventional measurements of the number of progenitors for erythrocytes, granulocytes, macrophages, platelets, and T-cells. The culture conditions included growth factors that would give near optimum growth for the particular lineage. These factors included II-3, PHA-lymphocyte conditioned medium, erythropoietin (EPO), II-6, and GM-CSF. The number of colonies developing in methylcellulose reflects the number of progenitor cells, and the percent increase is a measure of the effect of different polypeptides to increase colony number above the maximum obtained with the indicated known growth factors.
# The latter is a less conventional assay, and details on the methods involved are described elsewhere.^178
# [11] = Lethally irradiated rats and mice; conditions: treated at time of radiation
# Protocol: In order to determine in vivo relevance of the prohematopoietic effects of MA treated rats and mice under several conditions of bone marrow suppression. First, the effects of native MA and pMA and of the synthetic 15-mer MAS1 were treated for their capacity to reduce or prevent the effects of lethal doses of gamma irradiation. […] MA, pMA, MAS1, and various control polypeptides were given 48 and 24 hrs before, during, or 24 hrs after radiation. The animals treated prior to radiation received either 100 ng vs. 1 ug (rats) or 50 ng vs. 500 ng (mice) as 2 subcutaneous injections.
# It is not yet possible to determine the precise molar dose of pMA because of less certainty on its full-length sequence.
# To ascertain that the MA effect did promote hematopoiesis in these animals we examined the bone marrow for cellularity and colony formation and determined peripheral blood counts.
# [12] = Lethal dose taxol in Sprague-Dawley rats; format: in vivo; conditions: even at high doses
# Protocol: Sprague-Dawley rats were given taxol in large lethal doses, 4.5 mg in one I.P. inoculation. […] Bone marrow suppression can also be a side effect of the clinical use of taxol.^179 As in the radiation experiments, either MA, pMA, MAS1, or various polypeptide controls were given subcutaneously only in two doses 24 and 48 hrs before taxol treatment or were given 3×/week for 4 weeks. […]
molecule,measurement,setting,value
NYRDVRFESIRLPGCPRGVNPVVSYAVALS (listed as Homo sapiens) [MAS2],induction of apoptosis,Ewing's sarcoma,induced apoptosis
same,induction of apoptosis,KS Y-1 cells,induced apoptosis
same,induction of apoptosis,[1],induced apoptosis
same,induction of apoptosis,carcinoma of the colon,induced apoptosis
same,induction of apoptosis,[2],induced apoptosis
same,induction of apoptosis,[3],induced apoptosis
same,induction of apoptosis,[4],induced apoptosis
same,induction of apoptosis,fibrosarcoma 4TB166,induced apoptosis
same,induction of apoptosis,gliobastoma HTB16,induced apoptosis
same,induction of apoptosis,[5],induced apoptosis
same,induction of apoptosis,melanoma HTB67,induced apoptosis
same,induction of apoptosis,[6],induced apoptosis
same,induction of apoptosis,[7],induced apoptosis
same,effect on xenotransplanted tumor (qualitative),[8],hypocellularity and degenerative changes of the cells; also recorded: undergoing apoptosis
same,inhibition of HIV replication (qualitative),HIV-1,full-inhibition
"peptide 6-42: β-core AA 6-42 N-terminal polypeptide with PDGF related sequences (RPRCRPINATLAVEKEGCPVCITVNTTICAGYCPTMT; UniProt P0DN86 26-62, looked up, fragment) [reference compound]",biological activities in vitro or in vivo in the experimental systems described,[9],none of the activities
β-hCG 6-39: SEQ ID NO: 17 (RPRCRPINATLAVEKEGCPVCITVNTTICAGYCP; listed as Homo sapiens),inhibition of growth / induction of apoptosis of neoplastic cells,human tumor cells,negative
"β-hCG AA 21-52: control peptide 32 amino acids in length, AA 21-52 of β-hCG (EGCPVCITVNTTICAGYCPTMTRVLQGVLPAL; listed as Homo sapiens) [reference compound]",inhibition of growth / induction of apoptosis of neoplastic cells,human tumor cells,negative
same,HIV-1 viral expression in tissues,HIV-1 gene expression,high expression
same,mice dead by day 10,HIV-1 gene expression,10 of 10
B1,biological activities in vitro or in vivo in the experimental systems described,[9]; listed as native glycosylated β-core,none of the biological activities
same,biological activities in vitro or in vivo in the experimental systems described,[9]; listed as purified native glycosylated core,no activity
same,inhibition of growth / induction of apoptosis of neoplastic cells,human tumor cells,no inhibition of growth or induction of apoptosis
same,effect on xenotransplanted tumor (qualitative),[8],no effect
same,HIV-1 viral expression in tissues,HIV-1 gene expression,high expression
same,mice dead by day 10,HIV-1 gene expression,10 of 10
same,hematopoietic effects in vivo and in vitro,[10],None
same,effect on colony number (qualitative),[10]; equimolar or higher concentrations,no significant effect above background
same,time within which animals died,[11],≤ 5 days
same,effect on survival (qualitative),[12],no effect
